Data from patent US12414960B2, “Analogues of oleuropein and oleacein and uses thereof” (Attica Sciences Ltd., priority 2020, dated 2025).
“Also recorded” adds a separate entry of the source.

Experiments:
[1] = DPPH radical scavenging assay; format: biochemical; conditions: NS = not statistically significant
Description: The method of assessing the antioxidant capacity through the binding of the stable DPPH. radical was performed for the first time by Brand-Williams et al. in 1995 (Brand-William, W. et al., Lebensm Wiss Technol, 1995, 28: 25-30, “Use of a free radical method to evaluate antioxidant activity”). The method used herein is a variation of the original method and is one of the most characteristic and simple methods for the initial assessment of the antioxidant activity of antioxidant molecules or extracts rich in compounds with antioxidant properties.
The assessment of antioxidant capacity is based on the interaction of the tested molecules with the stable radical of 2,2-diphenyl-1-picrylydrazyl (DPPH). The DPPH. radical can be inactivated either by the addition of an electron or by a hydrogen atom. It is a stable organic nitrogen radical that is purple in color and absorbs at 517 nm. When a substance with antioxidant activity is added to the radical solution, then 2,2-diphenyl-1-picrylydrazyl (DPPH.) is reduced by the addition of a hydrogen atom (or electron) and converted to 2,2-diphenyl-1-picrylhydrazine (DPPH) which has a yellow color, resulting in reduction to the visual absorption (FIG. 2).
The effects of GS compounds on DPPH radical was evaluated as described previously (Spanou, C et al., Anticancer Research, 2007, 27: 3403-3410). Briefly, the assay was carried out in 1 mL of methanol containing 100 μM freshly made DPPH in methanol and the tested GS compound at different concentrations. The contents were vigorously mixed, incubated at room temperature in the dark for 20 minutes and the absorbance was read at 517 nm using a Hitachi U-1500 Spectrophotometer (San Jose, USA). In each experiment, the tested extract alone in methanol was used as blank and DPPH alone in methanol was used as control. […] The radical scavenging capacity (RSC) of the tested extracts was expressed as a percentage of DPPH elimination calculated according to the following equation: % RSC=[(absorbance of control−absorbance of GS compound)/absorbance of control]×100.

[2] = test system: HCT-116 colon cancer cells; experiment: Cell Glo luminescence cell growth assay, HCT-116; format: cell-based, human; conditions: NS = not statistically significant; for inhibition at 1 µM: Homo sapiens, HCT-116, 24 h, read-out: Effectiveness to suppress HCT-116 cell growth (cell growth inhibition); for Effectiveness to suppress HCT-116 cell growth (cell growth inhibition): 1 uM, 24 h
Text: The CellTiter-Glo® Luminescent Cell Viability Assay (Promega Corporation; Madison, WI) is a homogeneous method of determining the number of viable cells in culture based on quantitation of the ATP present, an indicator of metabolically active cells. The homogeneous assay procedure involves adding the single reagent (CellTiter-Glo® Reagent) directly to cells cultured in serum-supplemented medium. The homogeneous “add-mix-measure” format results in cell lysis and generation of a luminescent signal proportional to the amount of ATP present. The amount of ATP is directly proportional to the number of cells present in culture.
Cancer cells (3,000 cells/well) were harvested in a 96-well plate. Then, the cancer cells were treated with GS compounds and incubated for 24 hours. The MT Cell Viability Substrate, NanoLuc® Enzyme and cell culture medium was equilibrated to 37° C. The 2× RealTime-Glo™ reagent was prepared by diluting the MT Cell Viability Substrate and NanoLuc® Enzyme in 37° C. cell culture medium to a 2× concentration for each reagent. For example, 1 mL of 2× RealTime-Glo™ reagent was prepared by adding 2 μL of MT Cell Viability Substrate, 1,000×, and 2 μL of NanoLuc® Enzyme, 1,000×, to 996 μL of cell culture medium to form the 2× RealTime-Glo™ reagent. Then, an equal volume of 2× RealTime-Glo™ reagent was added to the cancer cells. The cells were kept for ˜20 minutes in the cell culture incubator and then luminescence was measured by using a plate-reading luminometer.
HCT-116 is a human colorectal cancer cell lines that has a mutation in RAS proto-oncogene.
The effects of exemplary compounds on cancer cell lines and one non-tumorigenic cell line (control) were investigated using a high throughput screening assay. More specifically, the effects of the GS compounds on cell growth was evaluated by the XTT assay for cell lines HepG2, HeLa, MCF7 ER+, MDA-MB-231, and MKN-45, and by the Cell Glo luminescence assay for cell lines MIA PaCa-2, HCT-116, MCF-10A, and PANC-1.

[3] = test system: HCT-116 colon cancer tumor; experiment: HCT116 xenograft mouse model; format: in vivo, nu/nu mice; conditions: 20 mg/kg i.p. every 5 days, until 20 days post-treatment
Description: The effect of GS27 on colon cancer tumor growth in mice was evaluated in a HCT116 xenograft mouse model. HCT-116 is a human colorectal cancer cell line that has a mutation in RAS proto-oncogene.
Xenograft tumors were generated by injecting HCT-116 colon cancer cells (5×10^6) into the right flank of female nu/nu mice (Charles River Laboratories). All mice developed tumors in 10 days with size of approximately 100 mm3. For each experiment, mice were randomly distributed into equal groups (4 mice per group) that were untreated, or treated by intraperitoneal injections every 5 days with 20 mg/kg GS27 or GS19 (oleocanthal). Tumor volume (average, SD) was evaluated until 20 days post-treatment.

[4] = test system: pACLY (S455); experiment: ELISA of pACLY (S455) / ACLY enzymatic activity in PANC-1 cells; format: cell-based, human; conditions: 5 μM
Description: ELISA assay was used to evaluate the effect of GS compounds on protein activity levels in PANC-1 cancer cells. PANC-1 cells were serum-starved overnight and then treated with rIGF1 (100 ng/mL) for 24 hours, with or without GS27 (5 μM). The levels of the following proteins were evaluated by ELISA assay: a) p70 S6 (T389) (cat no. 54164C, Cell Signaling); b) pAKT (S473), (cat no. 80895, Cell Signaling); c) pACLY (S455), (cat no. okag1672, Avivasysbio); d) pAMPK (T172) (cat no. 7959C, Cell Signaling) and e) p65/NFKB (S536), (cat no. 7173, Cell Signaling).
PANC-1 is a human pancreatic ductal adenocarcinoma cell line derived from the carcinoma of a person.
The molecular mechanism of action of GS27, a compound that has exerted potent anti-cancer activity in different cancer cell lines including pancreatic cancer cells, was investigated. Oleacein has been implicated to have anti-inflammatory and metabolic effects, thus the potential effects of GS27 in different metabolic and inflammatory pathways were evaluated. Specifically, the protein levels of p70 S6 (T389), pAKT (S473), pACLY (S455), pAMPK (T172) and p65/NFKB (S536) were evaluated by ELISA assay in PANC-1 pancreatic cancer cells treated with 5 μM GS27. GS27 reduced p70 S6 and AKT phosphorylation levels, while it increased AMPK phosphorylation.
The effects of different GS compounds on ACLY enzymatic activity were evaluated by ELISA assay in PANC-1 pancreatic cancer cells. […] This finding is unexpected, since GS21 has a very similar structure with GS27, with the only difference being the presence of an oxygen atom in ester GS21 instead of a sulfur atom in thioester GS27.

Structure (SMILES) | DPPH Radical Scavenging Assay IC50 [1] | inhibition at 1 µM [2] | tumor size inhibition, HCT-116 colon cancer tumor growth [3] | ACLY enzymatic activity (ELISA) [4] | Effectiveness to suppress HCT-116 cell growth (cell growth inhibition) [2]
C/C=C1/[C@H](OC2OC(CO)C(O)C(O)C2O)OC=C(C(=O)O)[C@H]1CC(=O)OCCc1ccc(O)c(O)c1 (stereo in doubt) [GS6, (2S,4S,E)-4-(2-(3,4-dihydroxyphenethoxy)-2-oxoethyl)-3-ethylidene-2{[(2R,3S,4R,5R,6S)-3,4,5-trihydroxy-6-(hydroxymethyl)tetrahydro-2H-pyran-2-yl]oxy}-3,4dihydro-2H-pyran-5-carboxylic acid] | 5.9 μg extract/mL | – | – | – | –
C/C=C1/[C@H](O[C@@H]2O[C@H](CO)[C@@H](O)[C@H](O)[C@H]2O)OC=C(C(=O)OC)[C@H]1CC(=O)OCCc1ccc(O)c(O)c1 [GS1, oleuropein] | 13.8 μg extract/mL | – | – | – | –
C/C=C(/C=O)[C@@H](CC=O)CC(=O)OCCc1ccc(O)c(O)c1 [GS17, (3S,4E)-4-formyl-3-(2-oxoethyl)-4-hexenoic acid 2-(3,4-dihydroxyphenyl)ethyl ester, reference compound] | 11.5 μg extract/mL | – | – | – | –
C/C=C(/C=O)[C@@H](CC=O)CC(=O)OCCc1ccc(O)cc1 [GS19, (3S,4E)-4-formyl-3-(2-oxoethyl)-4-hexenoic acid 2-(4-hydroxyphenyl)ethyl ester, reference compound] | – | 21.6% | did not show any significant effect | – | –
C/C=C(/C=O)[C@@H](CC=O)CC(=O)OCCOc1ccccc1 [GS24, (3S,4E)-4-formyl-3-(2-oxoethyl)-4-hexenoic acid 2-phenoxyethyl ester] | – | – | – | small effect | –
C/C=C(/C=O)[C@@H](CC=O)CC(=O)OCCCCCCCCCCCCCCCC [GS26, (3S,4E)-4-formyl-3-(2-oxoethyl)-4-hexenoic acid hexadecyl ester] | – | 36.3% | – | did not show any effect | suppressive activity
C/C=C(/C=O)[C@@H](CC=O)CC(=O)SCCc1ccccc1 [GS27, S-phenethyl (3S,4E)-4-formyl-3-(2-oxoethyl)hex-4-enethioate] | – | 56.5% | > 60% | dramatic effect on reducing; also recorded: substantially reducing | suppressive activity
C/C=C(/C=O)[C@@H](CC=O)CC(=O)OCCCSC [GS28, (3S,4E)-4-formyl-3-(2-oxoethyl)-4-hexenoic acid 3-(methylthio)propyl ester] | – | 34.4% | – | did not show any effect | suppressive activity
